Laboratory results from patent publication US20150290612A1 (priority 2012, published 2015).

Target: Acetylcholinesterase (AChE) (Electrophorus electricus, UniProt O42275)
Type: biochemical

Acetylcholinesterase (AChE), sequence (O42275 24-633): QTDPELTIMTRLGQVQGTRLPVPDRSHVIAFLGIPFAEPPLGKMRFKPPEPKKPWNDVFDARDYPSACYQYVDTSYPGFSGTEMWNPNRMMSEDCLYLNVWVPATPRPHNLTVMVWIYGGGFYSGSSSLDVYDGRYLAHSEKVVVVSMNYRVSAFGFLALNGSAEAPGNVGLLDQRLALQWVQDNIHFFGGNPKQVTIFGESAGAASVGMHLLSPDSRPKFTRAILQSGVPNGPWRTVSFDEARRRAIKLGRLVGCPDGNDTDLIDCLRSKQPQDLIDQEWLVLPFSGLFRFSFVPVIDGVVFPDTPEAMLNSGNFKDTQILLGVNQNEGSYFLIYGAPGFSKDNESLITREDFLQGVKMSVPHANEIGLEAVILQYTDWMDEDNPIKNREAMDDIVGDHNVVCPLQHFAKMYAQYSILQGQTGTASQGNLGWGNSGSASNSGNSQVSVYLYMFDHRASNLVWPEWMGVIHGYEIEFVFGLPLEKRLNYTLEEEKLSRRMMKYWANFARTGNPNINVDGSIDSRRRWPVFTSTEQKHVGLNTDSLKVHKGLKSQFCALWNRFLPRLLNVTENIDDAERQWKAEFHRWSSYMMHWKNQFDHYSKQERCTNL

SMILES | Interference with analysis of organophosphates
CCNc1nc(Cl)nc(NCC)n1 [simazine] | no interference
CCNc1nc(Cl)nc(NC(C)C)n1 [atrazine] | no interference
